Converted amounts (≈) assume the structure as drawn.

Series [1] can be described thus: Metabolic stability in human liver microsomes assessed as compound remaining at 1 uM after 30 mins. To be noted: read-out: Stability. In kind it is ADME, Microsome.
Series [2] deals with T1, Serine/threonine-protein kinase PLK2 (Homo sapiens, UniProt Q9NYY3).
Description: Inhibition of GST-tagged Plk2 (unknown origin) assessed as inhibition of DEKTDDED phosphorylation at Thr1342 after 60 mins by TR-FRET assay
Series [3] can be described thus: Metabolic stability in rat liver microsomes assessed as compound remaining at 1 uM after 30 mins. In kind it is ADME, Microsome. To be noted: read-out: Stability. (Microsomes from liver hold many membrane-bound enzymes, among them those of drug oxidation.)
Series [4] in a line: Metabolic stability in mouse liver microsomes assessed as compound remaining at 1 uM after 30 mins. In kind it is ADME, Microsome. The settings on record: read-out: Stability.
The target in series [5] is Serine/threonine-protein kinase PLK1 (Homo sapiens, UniProt P53350). In words: Inhibition of GST-tagged Plk1 (unknown origin) assessed as inhibition of DEKTDDED phosphorylation at Thr1342 after 60 mins by TR-FRET assay. (In general: In TR-FRET formats the signal depends on donor and acceptor labels being close together.)
Series [6] can be described thus: Solubility of the compound. In kind it is physicochemical.
The nature of series [7]: Apparent permeability across apical to basolateral side in […] MDCK2 cells at 5 uM after 120 mins by LC/MS/MS analysis. In kind it is ADME, cell-based, MDCK-II. To be noted: MDCK.
Series [8] is described as follows: Lipophilicity, log P of the compound. In kind it is physicochemical. The settings on record: octanol/water.
Series [9] has as its target T1, Serine/threonine-protein kinase PLK2. The source holds these as a separate data set.

T1 sequence (Q9NYY3 whole entry): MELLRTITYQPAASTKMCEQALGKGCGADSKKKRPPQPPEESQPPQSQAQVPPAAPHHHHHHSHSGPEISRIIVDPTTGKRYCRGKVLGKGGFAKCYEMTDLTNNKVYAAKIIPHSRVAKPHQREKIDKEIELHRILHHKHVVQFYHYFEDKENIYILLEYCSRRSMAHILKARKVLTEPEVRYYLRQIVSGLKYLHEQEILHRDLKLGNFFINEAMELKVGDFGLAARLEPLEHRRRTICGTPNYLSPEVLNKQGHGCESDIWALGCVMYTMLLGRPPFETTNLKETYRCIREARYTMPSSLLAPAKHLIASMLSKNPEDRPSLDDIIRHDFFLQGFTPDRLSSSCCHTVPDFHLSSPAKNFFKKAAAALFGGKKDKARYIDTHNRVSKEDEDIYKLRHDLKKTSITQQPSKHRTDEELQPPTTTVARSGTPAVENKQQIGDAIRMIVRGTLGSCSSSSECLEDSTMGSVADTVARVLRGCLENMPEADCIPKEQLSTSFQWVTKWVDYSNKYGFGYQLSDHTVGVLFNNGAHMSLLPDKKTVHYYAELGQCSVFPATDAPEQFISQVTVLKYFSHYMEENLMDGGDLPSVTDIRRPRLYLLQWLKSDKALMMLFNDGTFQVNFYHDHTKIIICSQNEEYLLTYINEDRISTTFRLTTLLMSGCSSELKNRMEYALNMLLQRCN
Sequence of Serine/threonine-protein kinase PLK1 (P53350 whole entry): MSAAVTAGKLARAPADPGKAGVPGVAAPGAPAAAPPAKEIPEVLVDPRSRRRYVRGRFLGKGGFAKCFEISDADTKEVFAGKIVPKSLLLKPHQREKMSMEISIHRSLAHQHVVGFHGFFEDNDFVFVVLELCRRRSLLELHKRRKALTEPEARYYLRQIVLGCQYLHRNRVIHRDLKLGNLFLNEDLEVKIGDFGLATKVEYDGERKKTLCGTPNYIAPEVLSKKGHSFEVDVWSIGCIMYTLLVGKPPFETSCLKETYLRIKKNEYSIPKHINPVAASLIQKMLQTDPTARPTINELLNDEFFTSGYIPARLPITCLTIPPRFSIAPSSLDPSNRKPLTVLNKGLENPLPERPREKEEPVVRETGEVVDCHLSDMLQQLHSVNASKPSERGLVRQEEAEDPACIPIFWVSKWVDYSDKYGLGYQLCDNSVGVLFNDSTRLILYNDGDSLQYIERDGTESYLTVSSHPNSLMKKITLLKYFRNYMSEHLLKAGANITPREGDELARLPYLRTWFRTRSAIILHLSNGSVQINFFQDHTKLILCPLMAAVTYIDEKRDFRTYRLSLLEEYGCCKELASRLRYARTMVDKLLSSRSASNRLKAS

The term IC50 denotes the concentration that inhibits the measured activity by half. On to `CC[C@@H]1C(=O)N(C)c2cnc(-c3c[nH]nc3-c3ccc(F)cc3F)nc2N1c1cnn(C)c1`, for which the remaining at 0.5 h, 1 µM in [1] was 48%; in [3], 13%; in series [4], 5%. In series [2], this molecule displayed an IC50 of 103 nM.
Turning to `CC(C)N1c2nc(-n3ccnc3-c3ccc(F)cc3)ncc2N(C)C(=O)C12CCC2`, the remaining at 0.5 h, 1 µM in [1] came to 4%; in [3], 1%; in series [4], 7%.
On to `CC(C)N1c2nc(-n3ccnc3-c3ccc(F)cc3)ncc2N(C)C(=O)C1(C)C`, for which the remaining at 0.5 h, 1 µM in series [1] stood at 54%; in series [3], 10%; in [4], 25%. In addition, the IC50 was greater than 100000 nM in series [5] and 2710 nM in series [2].
A word on the solubility: it is how much of the substance goes into solution per volume. What is called Papp A→B is how fast a substance crosses the layer from the apical side. In [6], `CC[C@@H]1C(=O)N(C)c2cnc(-n3ccnc3-c3ccccc3)nc2N1C1CCCC1` showed a solubility of 100 µM (≈ 40.3 µg/mL). For the same molecule, the Papp A→B at 2 h, 5 µM in series [7] worked out at 11.4 ×10⁻⁶ cm/s. Besides, the remaining at 0.5 h, 1 µM in [1], in series [3] and in series [4] was 0% in each case. In series [2], it took 5 nM to reach half-maximal inhibition (IC50).
As for `CC[C@@H]1C(=O)N(C)c2cnc(-c3c[nH]nc3-c3nccs3)nc2N1C(C)C`, in [6], the solubility is 100 µM (≈ 38.3 µg/mL). Also, in series [7], the apparent permeability from apical to basolateral (Papp A→B) at 2 h, 5 µM was 18.3 ×10⁻⁶ cm/s. Further, the remaining at 0.5 h, 1 µM in [1] stood at 38%; in [3], 38%; in series [4] it was 33%.
What is called logP is a log measure of how a compound divides between an organic and an aqueous phase. As for `CC[C@@H]1C(=O)N(C)c2cnc(-n3ccnc3-c3ccccc3)nc2N1C(C)C`, in [8], the logP entry is listed as “Not Active”. In addition, the remaining at 0.5 h, 1 µM in series [1] is 14%; in series [3] it was 0%; in [4] it was 12%.
`CC[C@@H]1C(=O)N(C)c2cnc(-n3ccnc3-c3ccccc3)nc2N1CCC(F)(F)F`: the logP in series [8] (read-out: logP) was 3.1. Also, the remaining at 0.5 h, 1 µM in [1] is 0%; in series [3], 0%; in series [4], 2%.
On to `CC[C@@H]1C(=O)N(C)c2cnc(-n3ccnc3-c3ccc(F)cc3)nc2N1CCC(F)(F)F`, for which, in series [7], the Papp A→B at 2 h, 5 µM turned out to be 15.8 ×10⁻⁶ cm/s. In addition, the logP in series [8] (read-out: logP) amounted to 3.1. Further, the remaining at 0.5 h, 1 µM in series [1] turned out to be 27%; in series [3] it was 30%; in series [4], 32%.
Consider `CC[C@@H]1C(=O)N(C)c2cnc(-n3ccnc3-c3ccc(F)cc3)nc2N1C1CC(F)(F)C1`, for which the logP in series [8] (read-out: logP) was determined as 3. In addition, the remaining at 0.5 h, 1 µM amounted to 19% in series [1], 14% in [3] and 30% in series [4].
As to `CC[C@@H]1C(=O)N(C)c2cnc(-n3ccnc3-c3ccc(F)cc3)nc2N1C1COC1`, the logP in series [8] (read-out: logP) came to 1.6. For the same molecule, the remaining at 0.5 h, 1 µM is 74% in [1], 80% in series [3] and 74% in series [4]. Also, the results for the IC50 in series [5] and in series [2] were greater than 50000 nM and 1040 nM, respectively.
Take `CC[C@@H]1C(=O)N(C)c2cnc(-n3ccnc3-c3ccccc3)nc2N1[C@H]1CCOC1`: in series [8] (read-out: logP), the logP stood at 1.9. The remaining at 0.5 h, 1 µM in series [1] was determined as 17%; in series [3], 13%; in series [4], 51%.
For `CC[C@@H]1C(=O)N(C)c2cnc(-n3ccnc3-c3ccccc3)nc2N1[C@@H]1CCOC1`, in that order: 1.8, 10%, 0% and 27%.
As for `CC[C@@H]1C(=O)N(C)c2cnc(-n3ccnc3-c3ccc(F)cc3)nc2N1[C@H]1CCOC1`, the Papp A→B at 2 h, 5 µM in [7] turned out to be 23.4 ×10⁻⁶ cm/s. For the same molecule, the logP in series [8] (read-out: logP) was found to be 2. The remaining at 0.5 h, 1 µM came out at 58% in series [1], 67% in [3] and 63% in series [4]. Besides, the IC50 turned out to be 33 nM in [2] and 2050 nM in series [9].
Consider `CC[C@@H]1C(=O)N(C)c2cnc(-n3ccnc3-c3ccccc3)nc2N1c1cncnc1`, for which the logP in series [8] (read-out: logP) stood at 1.3. Also, the remaining at 0.5 h, 1 µM was determined as 55% in [1], 76% in [3] and 60% in [4]. The same molecule yielded an IC50 in series [2] of 44 nM.
Turning to `CC[C@@H]1C(=O)N(C)c2cnc(-n3ccnc3-c3ccc(F)cc3)nc2N1c1cn[nH]c1`, the Papp A→B at 2 h, 5 µM in series [7] worked out at 8.7 ×10⁻⁶ cm/s. In addition, the logP in series [8] (read-out: logP) was 1.8. Besides, the remaining at 0.5 h, 1 µM is 73% in series [1], 82% in [3] and 66% in series [4].
For `CC[C@@H]1C(=O)N(C)c2cnc(-n3ccnc3-c3ccc(F)cc3)nc2N1c1cnn(C)c1`, in that order: 21.2 ×10⁻⁶ cm/s, 2, 69%, 86% and 50%.
In the case of `CC[C@@H]1C(=O)N(C)c2cnc(-n3ccnc3-c3ccc(F)cc3)nc2N1c1ccnn1C`, in [8] (read-out: logP), the logP was 1.9. The remaining at 0.5 h, 1 µM is 74% in [1], 80% in series [3] and 72% in series [4].
As to `CC[C@@H]1C(=O)N(C)c2cnc(-c3cn[nH]c3-c3nccs3)nc2N1C1CCOCC1`, the Papp A→B at 2 h, 5 µM in series [7] was determined as 18.9 ×10⁻⁶ cm/s. For the same molecule, the values for the remaining at 0.5 h, 1 µM in series [1], in series [3] and in series [4] were 47%, 39% and 44%, respectively.
As to `CC[C@@H]1C(=O)N(C)c2cnc(-c3c[nH]nc3-c3nccs3)nc2N1[C@H]1CCOC1`, the Papp A→B at 2 h, 5 µM in [7] stood at 16.8 ×10⁻⁶ cm/s. Moreover, the figures for the remaining at 0.5 h, 1 µM in series [1], in [3] and in series [4] were 51%, 39% and 47%, respectively. Further, the IC50 in series [2] was 39 nM; in [9], 3190 nM.
Take `CC[C@@H]1C(=O)N(C)c2cnc(-c3cn[nH]c3-c3nccs3)nc2N1c1cn[nH]c1`: the Papp A→B at 2 h, 5 µM in [7] was determined as 6.6 ×10⁻⁶ cm/s. Moreover, the remaining at 0.5 h, 1 µM was determined as 84% in series [1], 48% in series [3] and 57% in series [4].
Regarding `CCC1C(=O)N(C)c2cnc(-c3cn[nH]c3-c3ccccn3)nc2N1c1cnn(C)c1` (racemic), the Papp A→B at 2 h, 5 µM in series [7] is 10.1 ×10⁻⁶ cm/s. Further, the remaining at 0.5 h, 1 µM amounted to 88% in series [1], 87% in series [3] and 64% in series [4]. For the same molecule, the IC50 in [2] was 168 nM.
`CN1C(=O)C(CC(F)(F)F)N(CCC(F)(F)F)c2nc(-n3ccnc3-c3ccc(F)cc3)ncc21` (racemic): the remaining at 0.5 h, 1 µM stood at 15% in series [1], 30% in series [3] and 42% in series [4].
For `CCC1(C)C(=O)N(C)c2cnc(-n3ccnc3-c3ccc(F)cc3)nc2N1CCC(F)(F)F` (racemic) the same measures were 17%, 34% and 29%.
As for `CCC1C(=O)N(C)c2cnc(-n3ccnc3-c3ccccc3)nc2N1c1cncnc1` (racemic), the Papp A→B at 2 h, 5 µM in series [7] is 12.2 ×10⁻⁶ cm/s. The same molecule came in with an IC50 in [9] of 3870 nM.
Turning to `CCC1C(=O)N(C)c2cnc(-n3ccnc3-c3ccc(F)cc3)nc2N1C1CCC(F)(F)C1` (racemic), in series [8] (read-out: logP), the logP is 3.1. In addition, the values for the remaining at 0.5 h, 1 µM in [1], in [3] and in [4] were 6%, 8% and 15%, respectively.
On to `CCC1C(=O)N(C)c2cnc(-n3ccnc3-c3ccccc3)nc2N1c1ccccc1` (racemic), for which the logP in series [8] (read-out: logP) came out at 3.3. The values for the remaining at 0.5 h, 1 µM in [1], in series [3] and in series [4] were 21%, 5% and 28%, respectively. The molecule also registered an IC50 in [2] of 17 nM.
As for `CCC1C(=O)N(C)c2cnc(-n3ccnc3-c3ccc(F)cc3)nc2N1c1ccc(F)cc1` (racemic), the logP in [8] (read-out: logP) came to 3.4. Also, the remaining at 0.5 h, 1 µM in [1] was 47%; in series [3], 11%; in series [4] it was 41%.
`CCC1C(=O)N(C)c2cnc(-n3ccnc3-c3ccc(F)cc3)nc2N1c1ccc(C#N)cc1` (racemic): the logP in series [8] (read-out: logP) was 2.7. Moreover, the figures for the remaining at 0.5 h, 1 µM in [1], in series [3] and in series [4] were 63%, 48% and 49%, respectively. Further, in series [2], half-maximal inhibition (IC50) was put at 31 nM.
On to `CCC1C(=O)N(C)c2cnc(-n3ccnc3-c3ccc(F)cc3)nc2N1c1cc[nH]n1` (racemic), for which the Papp A→B at 2 h, 5 µM in series [7] is 13.2 ×10⁻⁶ cm/s. Further, the logP in series [8] (read-out: logP) amounted to 2.2. The remaining at 0.5 h, 1 µM in series [1] came to 72%; in series [3], 65%; in [4], 67%. The IC50 was 9 nM in [2] and 740 nM in series [9].
Molecule `CCC1C(=O)N(C)c2cnc(-c3cn[nH]c3-c3nccs3)nc2N1c1cnn(C)c1` (racemic) displayed an IC50 in series [2] of 130 nM.

The values are drawn from ChEMBL document CHEMBL2401733 (Bioorg Med Chem Lett, 2013).
